Data on 20 molecules can be found in patent publication US8785457B2 (Cellzome Limited, priority 2009, dated 2014).

What all share (format): binding
In assay [1] the target is T1, DNA-dependent protein kinase (DNA-PK) (Homo sapiens, UniProt P78527).
T1 construct: endogenous in cells; host or cells: Jurkat, clone E6-1 (ATCC TIB-152) cell lysate
The experiment in a line: kinobeads assay, DNA-PK. The conditions noted are these: Further Kinobeads Data; read-out: DNAPK. In outline: (§1)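 Competitive binding in Jurkat cell lysate (5 mg/mL protein) against beads carrying an immobilized phenylmorpholin-chromen ligand, in DP buffer pH 7.4 with NP40, DTT and NaF. Bead-bound kinases were eluted and quantified by antibody dot blot with infrared detection, and IC50 was taken from dose-response curves of a 1:3 dilution series.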

The target in assay [2] is T2, PI3K delta (PI3 Kd) (Homo sapiens, UniProt O00329).
T2 construct: endogenous in cells; host or cells: Jurkat, clone E6-1 (ATCC TIB-152) cell lysate
Put plainly: kinobeads assay, PI3K delta. Conditions: Further Kinobeads Data; read-out: PI3Kd. Summed up: as §1

Assay [3] deals with T3, PI3 Kbeta (PI3 Kb) (Homo sapiens, UniProt P42338).
T3 construct: endogenous in cells; host or cells: cell lysate
Put plainly: kinobeads assay, PI3Kbeta. The conditions noted are these: Further Kinobeads Data; read-out: PI3Kb. Summed up: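 Competitive pull-down in cell lysate: compound (various conc.) + phenylmorpholin-chromen affinity beads, incubate, separate beads, elute. Multiplexed immunodetection of bound kinases; dose-response fit → IC50.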

T1 sequence (P78527 whole entry): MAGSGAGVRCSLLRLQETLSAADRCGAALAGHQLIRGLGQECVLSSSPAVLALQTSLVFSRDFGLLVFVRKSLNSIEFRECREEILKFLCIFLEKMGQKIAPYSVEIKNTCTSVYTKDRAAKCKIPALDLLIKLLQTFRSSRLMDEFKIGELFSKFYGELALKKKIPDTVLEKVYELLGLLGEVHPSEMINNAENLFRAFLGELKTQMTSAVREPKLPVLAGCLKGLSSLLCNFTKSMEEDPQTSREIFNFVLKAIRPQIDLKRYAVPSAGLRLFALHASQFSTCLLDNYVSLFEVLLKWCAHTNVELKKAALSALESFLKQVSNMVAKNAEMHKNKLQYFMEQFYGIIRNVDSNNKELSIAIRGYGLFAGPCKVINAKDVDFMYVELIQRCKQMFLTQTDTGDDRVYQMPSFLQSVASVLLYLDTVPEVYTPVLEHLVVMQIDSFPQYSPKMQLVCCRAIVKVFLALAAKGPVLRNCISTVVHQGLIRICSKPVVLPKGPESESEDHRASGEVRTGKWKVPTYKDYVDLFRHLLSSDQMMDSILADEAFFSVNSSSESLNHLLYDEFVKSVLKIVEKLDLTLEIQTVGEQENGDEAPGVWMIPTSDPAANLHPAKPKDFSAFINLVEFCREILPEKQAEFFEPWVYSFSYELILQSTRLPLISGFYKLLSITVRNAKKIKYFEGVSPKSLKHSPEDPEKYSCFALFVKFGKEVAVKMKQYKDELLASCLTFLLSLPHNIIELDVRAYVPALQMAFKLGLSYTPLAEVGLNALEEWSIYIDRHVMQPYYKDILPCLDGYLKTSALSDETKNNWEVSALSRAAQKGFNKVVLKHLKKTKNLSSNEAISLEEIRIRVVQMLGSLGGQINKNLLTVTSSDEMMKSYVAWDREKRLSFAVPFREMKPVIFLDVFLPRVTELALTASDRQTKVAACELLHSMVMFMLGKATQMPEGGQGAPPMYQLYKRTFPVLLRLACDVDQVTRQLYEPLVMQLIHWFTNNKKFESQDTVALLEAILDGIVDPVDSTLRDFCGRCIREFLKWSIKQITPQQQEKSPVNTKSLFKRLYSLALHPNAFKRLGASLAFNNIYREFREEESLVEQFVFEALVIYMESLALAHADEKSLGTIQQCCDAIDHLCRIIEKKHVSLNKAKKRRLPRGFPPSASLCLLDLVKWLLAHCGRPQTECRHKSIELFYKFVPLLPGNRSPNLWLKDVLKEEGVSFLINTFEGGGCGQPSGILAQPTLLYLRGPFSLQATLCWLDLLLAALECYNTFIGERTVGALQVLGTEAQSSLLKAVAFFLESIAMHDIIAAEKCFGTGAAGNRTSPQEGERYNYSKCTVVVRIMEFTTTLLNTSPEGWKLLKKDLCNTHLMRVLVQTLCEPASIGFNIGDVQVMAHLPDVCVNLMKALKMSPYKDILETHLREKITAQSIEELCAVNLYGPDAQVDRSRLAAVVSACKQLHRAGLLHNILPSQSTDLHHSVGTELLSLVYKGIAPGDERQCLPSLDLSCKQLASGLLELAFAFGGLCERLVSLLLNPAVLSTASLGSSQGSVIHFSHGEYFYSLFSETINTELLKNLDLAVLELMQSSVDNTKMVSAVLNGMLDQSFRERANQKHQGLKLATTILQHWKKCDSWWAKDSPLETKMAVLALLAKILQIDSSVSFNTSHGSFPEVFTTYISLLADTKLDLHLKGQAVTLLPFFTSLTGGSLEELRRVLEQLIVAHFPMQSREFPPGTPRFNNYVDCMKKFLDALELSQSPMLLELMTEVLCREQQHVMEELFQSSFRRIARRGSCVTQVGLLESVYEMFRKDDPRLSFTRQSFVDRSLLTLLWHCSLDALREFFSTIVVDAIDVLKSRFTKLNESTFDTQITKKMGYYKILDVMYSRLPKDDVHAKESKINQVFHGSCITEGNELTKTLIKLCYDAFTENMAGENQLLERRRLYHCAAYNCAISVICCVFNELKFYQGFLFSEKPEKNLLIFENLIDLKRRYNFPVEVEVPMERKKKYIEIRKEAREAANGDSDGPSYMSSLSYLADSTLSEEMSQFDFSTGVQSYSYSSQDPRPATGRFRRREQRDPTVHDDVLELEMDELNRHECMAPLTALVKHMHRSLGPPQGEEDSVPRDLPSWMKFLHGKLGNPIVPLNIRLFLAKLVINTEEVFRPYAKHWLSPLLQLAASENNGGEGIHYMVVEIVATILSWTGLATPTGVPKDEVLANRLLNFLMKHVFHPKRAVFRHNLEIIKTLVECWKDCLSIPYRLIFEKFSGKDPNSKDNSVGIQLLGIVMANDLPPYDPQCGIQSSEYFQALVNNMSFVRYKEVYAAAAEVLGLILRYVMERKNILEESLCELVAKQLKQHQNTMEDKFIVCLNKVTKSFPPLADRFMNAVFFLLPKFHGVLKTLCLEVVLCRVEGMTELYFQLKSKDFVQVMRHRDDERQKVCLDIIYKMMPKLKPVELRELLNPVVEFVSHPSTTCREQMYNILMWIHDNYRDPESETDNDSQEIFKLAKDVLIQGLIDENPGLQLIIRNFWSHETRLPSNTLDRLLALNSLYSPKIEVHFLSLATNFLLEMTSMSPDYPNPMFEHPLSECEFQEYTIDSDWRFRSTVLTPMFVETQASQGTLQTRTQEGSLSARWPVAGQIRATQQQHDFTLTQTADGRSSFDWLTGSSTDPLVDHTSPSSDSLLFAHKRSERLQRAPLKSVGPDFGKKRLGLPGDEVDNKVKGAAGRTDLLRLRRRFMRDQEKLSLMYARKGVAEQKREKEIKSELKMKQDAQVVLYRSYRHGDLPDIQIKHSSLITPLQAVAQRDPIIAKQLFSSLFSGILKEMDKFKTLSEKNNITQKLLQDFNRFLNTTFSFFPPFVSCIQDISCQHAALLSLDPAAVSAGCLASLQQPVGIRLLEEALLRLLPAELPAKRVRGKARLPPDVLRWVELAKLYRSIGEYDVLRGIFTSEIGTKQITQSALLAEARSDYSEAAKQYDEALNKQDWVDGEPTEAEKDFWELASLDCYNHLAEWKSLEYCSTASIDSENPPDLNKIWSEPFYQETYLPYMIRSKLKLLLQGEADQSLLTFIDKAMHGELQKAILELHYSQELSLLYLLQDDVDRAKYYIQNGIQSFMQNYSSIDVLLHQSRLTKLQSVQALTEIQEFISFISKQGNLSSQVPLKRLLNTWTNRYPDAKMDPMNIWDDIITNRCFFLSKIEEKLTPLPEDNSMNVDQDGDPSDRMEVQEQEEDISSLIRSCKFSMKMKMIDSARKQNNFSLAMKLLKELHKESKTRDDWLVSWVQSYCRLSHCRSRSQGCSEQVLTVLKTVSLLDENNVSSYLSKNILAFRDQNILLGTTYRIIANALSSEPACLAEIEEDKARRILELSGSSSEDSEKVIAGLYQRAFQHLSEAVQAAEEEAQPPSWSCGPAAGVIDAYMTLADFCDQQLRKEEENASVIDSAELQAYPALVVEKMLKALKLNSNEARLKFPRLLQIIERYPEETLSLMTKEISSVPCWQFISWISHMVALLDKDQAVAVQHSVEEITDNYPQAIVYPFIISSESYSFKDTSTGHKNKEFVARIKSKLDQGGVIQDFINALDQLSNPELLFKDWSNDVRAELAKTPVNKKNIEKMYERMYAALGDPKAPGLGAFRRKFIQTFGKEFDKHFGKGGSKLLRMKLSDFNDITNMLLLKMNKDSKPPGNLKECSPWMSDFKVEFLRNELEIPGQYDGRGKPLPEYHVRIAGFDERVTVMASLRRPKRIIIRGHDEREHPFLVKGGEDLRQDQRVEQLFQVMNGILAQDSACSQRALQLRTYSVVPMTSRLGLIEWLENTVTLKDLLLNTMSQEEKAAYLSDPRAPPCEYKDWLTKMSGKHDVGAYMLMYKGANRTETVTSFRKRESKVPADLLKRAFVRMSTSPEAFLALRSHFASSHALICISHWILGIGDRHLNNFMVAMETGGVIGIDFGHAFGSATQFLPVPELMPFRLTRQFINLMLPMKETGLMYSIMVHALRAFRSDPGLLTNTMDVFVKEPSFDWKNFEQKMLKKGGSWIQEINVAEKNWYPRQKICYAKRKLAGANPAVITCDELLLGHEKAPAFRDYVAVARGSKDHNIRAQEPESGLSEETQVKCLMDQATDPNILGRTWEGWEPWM

For `CCOC(=O)N1Cc2nc(-c3ccc(NC(=O)NCCF)cc3F)nc(N3CCOC[C@@H]3C)c2C1` [Example 168, (S)-ethyl 2-(2-fluoro-4-(3-(2-fluoroethyl)ureido)phenyl)-4-(3-methylmorpholino)-5H-pyrrolo[3,4-d]pyrimidine-6(7H)-carboxylate], the IC50 in assay [1] is greater than 10 µM; in assay [2], 1 to 10 µM; in assay [3], greater than 10 µM.

Consider `CCOC(=O)N1Cc2nc(-c3ccc(NC(=O)NCCF)cc3F)nc(N3CCOCC3)c2C1` [Example 170, ethyl 2-(2-fluoro-4-(3-(2-fluoroethyl)ureido)phenyl)-4-morpholino-5H-pyrrolo[3,4-d]pyrimidine-6(7H)-carboxylate], for which the IC50 in assay [1] is 1 to 10 µM; in assay [2], 1 to 10 µM; in assay [3], greater than 10 µM.

For `CCOC(=O)N1Cc2nc(-c3ccc(NC(=O)NCCO)cc3F)nc(N3CCOCC3)c2C1` [Example 171, ethyl 2-(2-fluoro-4-(3-(2-hydroxyethyl)ureido)phenyl)-4-morpholino-5H-pyrrolo[3,4-d]pyrimidine-6(7H)-carboxylate], the IC50 is 1 to 10 µM in assay [1], greater than 10 µM in assay [2] and greater than 10 µM in assay [3].

Regarding `CC(C)N1Cc2nc(-c3ccc(NC(=O)NC4CC4)cc3F)nc(N3CCOC[C@@H]3C)c2C1` [Example 172, (S)-1-cyclopropyl-3-(3-fluoro-4-(6-isopropyl-4-(3-methylmorpholino)-6,7-dihydro-5H-pyrrolo[3,4-d]pyrimidin-2-yl)phenyl)urea], the IC50 in assay [1] was 1 to 10 µM; in assay [2], 1 to 10 µM; in assay [3], greater than 10 µM.

Take `COC(=O)N1Cc2nc(-c3ccc(NC(=O)NC4CC4)cc3F)nc(N3CCOCC3)c2C1` [Example 173, Methyl 2-(4-(3-cyclopropylureido)-2-fluorophenyl)-4-morpholino-5H-pyrrolo[3,4-d]pyrimidine-6(7H)-carboxylate]: the IC50 in assay [1], in assay [2] and in assay [3] was greater than 10 µM each time.

Regarding `CC(C)C(=O)N1Cc2nc(-c3ccc(NC(=O)NC4CC4)cc3F)nc(N3CCOC[C@@H]3C)c2C1` [Example 174, (S)-1-cyclopropyl-3-(3-fluoro-4-(6-isobutyryl-4-(3-methylmorpholino)-6,7-dihydro-5H-pyrrolo[3,4-d]pyrimidin-2-yl)phenyl)urea], the IC50 in assay [1], in assay [2] and in assay [3] was greater than 10 µM in each case.

In the case of `CCNC(=O)Nc1ccc(-c2nc3c(c(N4CCOC[C@@H]4C)n2)CCN(C(=O)N(C)C)C3)c(F)c1` [Example 176, (S)-2-(4-(3-ethylureido)-2-fluorophenyl)-N,N-dimethyl-4-(3-methylmorpholino)-5,6-dihydropyrido[3,4-d]pyrimidine-7(8H)-carboxamide], the IC50 in assay [1], in assay [2] and in assay [3] was 1 to 10 µM in each case.

Take `C[C@H]1COCCN1c1nc(-c2ccc(NC(=O)NC3CC3)cc2F)nc2c1CN(S(C)(=O)=O)C2` [Example 177, (S)-1-cyclopropyl-3-(3-fluoro-4-(4-(3-methylmorpholino)-6-(methylsulfonyl)-6,7-dihydro-5H-pyrrolo[3,4-d]pyrimidin-2-yl)phenyl)urea]: the IC50 in assay [1], in assay [2] and in assay [3] was greater than 10 µM each time.

`C[C@H]1COCCN1c1nc(-c2ccc(NC(=O)NC3CC3)cc2F)nc2c1CN(C(=O)N(C)C)C2` [Example 178, (S)-2-(4-(3-cyclopropylureido)-2-fluorophenyl)-N,N-dimethyl-4-(3-methylmorpholino)-5H-pyrrolo[3,4-d]pyrimidine-6(7H)-carboxamide]: the IC50 in assay [1], in assay [2] and in assay [3] was greater than 10 µM in each case.

For `CCOC(=O)N1Cc2nc(-c3ccc(NC(=O)NC4CC4)cc3F)nc(N3CCOC[C@H]3C)c2C1` [Example 179, (R)-ethyl 2-(4-(3-cyclopropylureido)-2-fluorophenyl)-4-(3-methylmorpholino)-5H-pyrrolo[3,4-d]pyrimidine-6(7H)-carboxylate], the IC50 in assay [1], in assay [2] and in assay [3] was greater than 10 µM in each case.

Take `COC(=O)N1Cc2nc(-c3ccc(NC(=O)NC4CC4)cc3F)nc(N3CCOC[C@H]3C)c2C1` [Example 180, (R)-methyl 2-(4-(3-cyclopropylureido)-2-fluorophenyl)-4-(3-methylmorpholino)-5H-pyrrolo[3,4-d]pyrimidine-6(7H)-carboxylate]: the values for the IC50 in assay [1], in assay [2] and in assay [3] were 1 to 10 µM, greater than 10 µM and greater than 10 µM, respectively.

In the case of `COC(=O)N1Cc2nc(-c3ccc(NC(=O)NCCO)cc3F)nc(N3CCOC[C@@H]3C)c2C1` [Example 181, (S)-methyl 2-(2-fluoro-4-(3-(2-hydroxyethyl)ureido)phenyl)-4-(3-methylmorpholino)-5H-pyrrolo[3,4-d]pyrimidine-6(7H)-carboxylate], the IC50 was 1 to 10 µM in assay [1], greater than 10 µM in assay [2] and greater than 10 µM in assay [3].

On to `COC(=O)N1Cc2nc(-c3ccc(NC(=O)NCCF)cc3F)nc(N3CCOC[C@@H]3C)c2C1` [Example 183, (S)-methyl 2-(2-fluoro-4-(3-(2-fluoroethyl)ureido)phenyl)-4-(3-methylmorpholino)-5H-pyrrolo[3,4-d]pyrimidine-6(7H)-carboxylate], for which the IC50 in assay [1], in assay [2] and in assay [3] was greater than 10 µM in each case.

`CC(C)N1Cc2nc(-c3ccc(NC(=O)NCCF)cc3F)nc(N3CCOCC3)c2C1` [Example 185, 1-(3-fluoro-4-(6-isopropyl-4-morpholino-6,7-dihyro-5H-pyrrolo[3,4-d]pyrimidin-2-yl)phenyl)-3-(2-fluoroethyl)urea]: the results for the IC50 in assay [1], in assay [2] and in assay [3] were greater than 10 µM, 1 to 10 µM and greater than 10 µM, respectively.

With `CC(C)N1Cc2nc(-c3ccc(NC(=O)NCCF)cc3F)nc(N3CCOC[C@@H]3C)c2C1` [Example 186, (S)-1-(3-fluoro-4-(6-isopropyl-4-(3-methylmorpholino)-6,7-dihydro-5H-pyrrolo[3,4-d]pyrimidin-2-yl)phenyl)-3-(2-fluoroethyl)urea], the IC50 in assay [1] is greater than 10 µM; in assay [2] it was 1 to 10 µM; in assay [3] it was greater than 10 µM.

In the case of `CC(C)N1Cc2nc(-c3ccc(NC(=O)NCCO)cc3F)nc(N3CCOC[C@@H]3C)c2C1` [Example 187, (S)-1-(3-fluoro-4-(6-isopropyl-4-(3-methylmorpholino)-6,7-dihydro-5H-pyrrolo[3,4-d]pyrimidin-2-yl)phenyl)-3-(2-hydroxyethyl)urea], the IC50 in assay [1], in assay [2] and in assay [3] was greater than 10 µM throughout.

Take `C[C@@H]1COCCN1c1nc(-c2ccc(NC(=O)NC3CC3)cc2F)nc2c1CN(C(=O)C1CC1)C2` [Example 188, (R)-1-(4-(6-(cyclopropanecarbonyl)-4-(3-methylmorpholino)-6,7-dihydro-5H-pyrrolo[3,4-d]pyrimidin-2-yl)-3-fluorophenyl)-3-cyclopropylurea]: the IC50 in assay [1], in assay [2] and in assay [3] was greater than 10 µM throughout.

Turning to `CC(C)NC(=O)N1CCc2c(nc(-c3ccc(NC(=O)NC4CC4)cc3F)nc2N2CCOC[C@@H]2C)C1` [Example 189, (S)-2-(4-(3-cyclopropylureido)-2-fluorophenyl)-N-isopropyl-4-(3-methylmorpholino)-5,6-dihydropyrido[3,4-d]pyrimidine-7(8H)-carboxamide], the IC50 in assay [1], in assay [2] and in assay [3] was greater than 10 µM each time.

Take `C[C@@H]1COCCN1c1nc(-c2ccc(NC(=O)NC3CC3)cc2F)nc2c1CN(C=O)C2` [Example 190, (R)-1-cyclopropyl-3-(3-fluoro-4-(6-formyl-4-(3-methylmorpholino)-6,7-dihydro-5H-pyrrolo[3,4-d]pyrimidin-2-yl)phenyl)urea]: the IC50 in assay [1], in assay [2] and in assay [3] was greater than 10 µM throughout.

For the molecule `C[C@@H]1COCCN1c1nc(-c2ccc(NC(=O)NC3CC3)cc2F)nc2c1CN(S(C)(=O)=O)C2` [Example 191, (R)-1-cyclopropyl-3-(3-fluoro-4-(4-(3-methylmorpholino)-6-(methylsulfonyl)-6,7-dihydro-5H-pyrrolo[3,4-d]pyrimidin-2-yl)phenyl)urea], the IC50 in assay [1], in assay [2] and in assay [3] was greater than 10 µM throughout.
